In this test the test system is microfilariae of Dirofilaria immitis. The test can be described thus: Dirofilaria immitis, Microfilaria (DiMF) Assay. It counts as cell-based. Particulars: read-out: D. immitis activity level (IC50 or MED). The method, boiled down: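 D. immitis microfilariae were incubated in medium with DMSO-diluted compounds for about 72 h. Survival or paralysis was scored subjectively under the microscope. Values are Minimum Effective Dose (MED).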

Broadly, the IC50 is the concentration at which inhibition is half-maximal. Regarding `CC(=O)N(C)c1cc(C(F)(F)F)cnc1Nc1nc(-c2cc3c(cn2)N(C(C)C)CC3)ns1` [Compound 273, N-(2-(3-(1-isopropyl-2,3-dihydro-1H-pyrrolo[2,3-c]pyridin-5-yl)-1,2,4-thiadiazol-5-ylamino)-5-(trifluoromethyl)pyridin-3-yl)-N-methylacetamide], the IC50 was under 200 nM. Take `O=C1CCCN1c1cccnc1Nc1nc(-c2ccc(NC34CC(C3)C4)cn2)ns1` [Compound 204, 1-(2-(3-(5-(bicyclo [1.1.1]pentan-1-ylamino)pyridin-2-yl)-1,2,4-thiadiazol-5-ylamino)pyridin-3-yl)pyrrolidin-2-one]: the concentration for half-maximal inhibition (IC50) is 500 to 5000 nM.

Regarding `Cc1nccnc1Nc1nc(-c2ccc(OC(C)C)cn2)ns1` [Compound 135, 3-(5-isoprop-oxypyridin-2-yl)-N-(3-methyl-pyrazin-2-yl)-1,2,4-thia-diazol-5-amine], the IC50 lay in the range of 200 to 500 nM. As for `c1ccc(-c2ccnc(Nc3nc(-c4ccccn4)ns3)c2)cc1` [Compound 237, N-(4-phenyl-pyridin-2-yl)-3-(pyridin-2-yl)-1,2,4-thiadiazol-5-amine], the half-inhibitory concentration (IC50) lay in the range of 200 to 500 nM.

As for `Cc1cccnc1Nc1nc(-c2ccc(OC3CCOCC3)cn2)no1` [Compound 16, N-(3-methyl-pyridin-2-yl)-3-(5-(tetrahydro-2H-pyran-4-yloxy)pyridin-2-yl)-1,2,4-oxadiazol-5-amine], the half-maximal inhibitory concentration (IC50) is 500 to 5000 nM. As for `Cc1cccnc1Nc1nc(-c2ccc(OC3CCN(C4CC4)CC3)cn2)ns1` [Compound 45, 3-(5-(1-cyclo-propylpiperidin-4-yloxy)pyridin-2-yl)-N-(3-methylpyridin-2-yl)-1,2,4-thiadiazol-5-amine], the concentration for half-maximal inhibition (IC50) fell in the range of 500 to 5000 nM. The figure for `COc1cnc(Nc2nc(-c3cc(C(N)=O)c(OC(C)C)cn3)ns2)c(C(F)(F)F)c1` [Compound 253, 5-isopropoxy-2-(5-(5-methoxy-3-(trifluoro-methyl)pyridin-2-ylamino)-1,2,4-thiadiazol-3-yl)isonico-tinamide] is 500 to 5000 nM.

In the case of `CC(C)Oc1cnc(-c2nsc(Nc3ncccc3C(=O)N(C)C)n2)cc1C(F)F` [Compound 260, 2-(3-(4-(difluoro-methyl)-5-isopropoxy-pyridin-2-yl)-1,2,4-thiadiazol-5-ylamino)-N,N-dimethyl-nicotinamide], the IC50 fell in the range of 200 to 500 nM. As for `Cc1cccnc1Nc1nc(-c2ccc(OC3CCN(C4CC4)CC3(F)F)cn2)ns1` (stereo not shown) [Compound 83, 3-(5-(1-cyclo-propyl-3,3-difluoro-piperidin-4-yloxy)pyridin-2-yl)-N-(3-methylpyridin-2-yl)-1,2,4-thiadiazol-5-amine], the IC50 was in the range of 200 to 500 nM.

Consider `CC(C)Oc1ccc(-c2nsc(Nc3ncc(C(=O)NC4CC(F)(F)C4)cc3C(C)C)n2)nc1` [Compound 195, N-(3,3-difluoro-cyclobutyl)-6-(3-(5-isoprop-oxypyridin-2-yl)-1,2,4-thiadiazol-5-ylamino)-5-isopropyl-nicotinamide], for which the concentration for half-maximal inhibition (IC50) is 500 to 5000 nM. The figure for `CC(=O)N(C)c1cccnc1Nc1nc(-c2cc3c(cn2)OC(C)(C)C3)ns1` [Compound 271, N-(2-(3-(2,2-dimethyl-2,3-dihydrofuro [2,3-c]pyridin-5-yl)-1,2,4-thiadiazol-5-ylamino)pyridin-3-yl)-N-methylacetamide] is 500 to 5000 nM. Take `CC(C)Oc1cnc(-c2nsc(Nc3ncc(C(C)C)cc3C(F)(F)F)n2)cc1C(N)=O` [Compound 221, 5-isopropoxy-2-(5-(5-isopropyl-3-(trifluoromethyl)pyridin-2-ylamino)-1,2,4-thiadiazol-3-yl)iso-nicotinamide]: the IC50 lay in the range of 200 to 500 nM. The same measure for `CC(=O)N1CCc2cc(-c3nsc(Nc4ncccc4C(F)(F)F)n3)ncc21` [Compound 267, 1-(5-(5-(3-(trifluoromethyl)pyridin-2-ylamino)-1,2,4-thiadiazol-3-yl)-2,3-dihydro-1H-pyrrolo[2,3-c]pyridin-1-yl)ethanone]: 200 to 500 nM.
